Laboratory results: patent publication US20020137929A1, “1 - (3-heterocyclylphenyl) isothiourea, -isourea, -guanidine and -amidine herbicidal agents” (Intellectual Property Department, BASF Aktiengesellschaft, priority 1998, published 2002)

Legend:
[1] = tested on: SETVI (Foxtail, Green); test: Postemergence herbicidal evaluation; assay type: in vivo, Setaria viridis; details: postemergence
How it was run: (§1)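 Scores (0–9) reflect plant stand, vigor, malformation, size, chlorosis and general appearance relative to control, read 4 to 5 weeks after treatment and averaged where tests were repeated. Application: about 0.0156–0.500 kg/ha sprayed at 40 psi onto two-week seedlings.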

[2] = tested on: ORYSAT (Rice, Tebonnet); test: Postemergence herbicidal evaluation; assay type: in vivo, Oryza sativa, (L.) Tebonnet; details: postemergence
How it was run: as §1

[3] = tested on: ZEAMX (Corn, Field); test: Postemergence herbicidal evaluation; assay type: in vivo, Zea mays; details: postemergence
How it was run: as §1

[4] = tested on: ECHCG (Barnyardgrass); test: Preemergence herbicidal evaluation; assay type: in vivo, Echinochloa crus-galli; details: rated 4-5 weeks after treatment, rating scale 0-9
How it was run: (§2)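 Visual 0-9 rating vs control (stand, vigor, malformation, size, chlorosis, overall appearance), scored 4-5 wk after spraying. Seeded soil cups were treated preemergence with compound in aqueous acetone, ~0.0156-0.500 kg/ha equivalent.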

[5] = tested on: SETVI (Foxtail, Green); test: Preemergence herbicidal evaluation; assay type: in vivo, Setaria viridis; details: rated 4-5 weeks after treatment, rating scale 0-9
How it was run: as §2

[6] = tested on: TRZAWR (Wheat, Winter, cv Riband); test: Preemergence herbicidal evaluation; assay type: in vivo, Triticum aestivum; details: rated 4-5 weeks after treatment, rating scale 0-9
How it was run: as §2

[7] = tested on: ZEAMX (Corn, Field); test: Preemergence herbicidal evaluation; assay type: in vivo, Zea mays; details: rated 4-5 weeks after treatment, rating scale 0-9
How it was run: as §2

[8] = tested on: ECHORC (Watergrass (Calif.)); test: Preemergence weed control under flooded paddy conditions; assay type: in vivo, Echinochloa oryzoides; details: rated 3-4 weeks after treatment
How it was run: (§3)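 Ratings on a 0-9 visual scale cover stand, vigor, malformation, size, chlorosis and overall appearance relative to a control, taken three to four weeks post-treatment. Application was into flood water over freshly sown silt loam at roughly 0.0313 to 0.500 kg/ha.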

[9] = tested on: CYPIR (Rice Flatsedge); test: as above; assay type: in vivo, Cyperus iria; details: rated 3-4 weeks after treatment
How it was run: as §3

[10] = tested on: CYPSE (Flatsedge); test: as above; assay type: in vivo, Cyperus serotinus; details: rated 3-4 weeks after treatment
How it was run: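 First, seeds or propagules go into the top 0.5 cm of silt loam; next, water is held 1.5 to 3 cm over the soil; then compound (50/50 acetone/water) is pipetted into it at about 0.0313 to 0.500 kg/ha; finally plants are rated visually 0-9 after three to four weeks.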

Cn1c(C(F)(F)F)cc(=O)n(-c2cc(N=C3SCC(=O)N3Cc3ccc(C(F)(F)F)cc3)c(Cl)cc2F)c1=O [Compound 141, 3-{4-Chloro-2-fluoro-5-{{3-[p-(trifluoromethyl)benzyl]-4-oxo-2-thiazolidinylidene}-amino}phenyl}-1-methyl-6-(trifluoromethyl)-2,4 (1H, 3H)-pyrimidinedione]
0.0: Herbicidal rating SETVI ([1]; rate 0.0156 kg/ha) | Herbicidal rating SETVI ([1]; rate 0.0313 kg/ha) | Herbicidal rating SETVI ([1]; rate 0.0625 kg/ha) | Preemergence herbicidal rating ECHCG ([4]; rate 0.0156 kg/ha) | Preemergence herbicidal rating ECHCG ([4]; rate 0.0313 kg/ha) | Preemergence herbicidal rating ECHCG ([4]; rate 0.0625 kg/ha) | Preemergence herbicidal rating ECHCG ([4]; rate 0.1250 kg/ha) | Preemergence herbicidal rating SETVI ([5]; rate 0.0156 kg/ha) | Preemergence herbicidal rating SETVI ([5]; rate 0.0313 kg/ha) | Preemergence herbicidal rating SETVI ([5]; rate 0.0625 kg/ha) | Preemergence herbicidal rating SETVI ([5]; rate 0.1250 kg/ha) | Preemergence herbicidal rating TRZAWR ([6]; rate 0.0156 kg/ha) | Preemergence herbicidal rating TRZAWR ([6]; rate 0.0313 kg/ha) | Preemergence herbicidal rating TRZAWR ([6]; rate 0.0625 kg/ha) | Preemergence herbicidal rating TRZAWR ([6]; rate 0.1250 kg/ha) | Preemergence herbicidal rating TRZAWR ([6]; rate 0.2500 kg/ha) | Preemergence herbicidal rating ZEAMX ([7]; rate 0.0156 kg/ha) | Preemergence herbicidal rating ZEAMX ([7]; rate 0.0313 kg/ha) | Preemergence herbicidal rating ZEAMX ([7]; rate 0.0625 kg/ha) | Preemergence herbicidal rating ZEAMX ([7]; rate 0.1250 kg/ha) | herbicidal effect rating, CYPSE ([10]; 0.0313 kg/ha) | herbicidal effect rating, CYPSE ([10]; 0.0625 kg/ha) | herbicidal effect rating, CYPSE ([10]; 0.1250 kg/ha) | herbicidal effect rating, CYPSE ([10]; 0.2500 kg/ha)
4.5: Herbicidal rating ZEAMX ([3]; rate 0.0313 kg/ha)
2.0: Herbicidal rating ORYSAT ([2]; rate 0.0625 kg/ha) | Preemergence herbicidal rating ECHCG ([4]; rate 0.2500 kg/ha) | Preemergence herbicidal rating ZEAMX ([7]; rate 0.2500 kg/ha)
4.0: Herbicidal rating ZEAMX ([3]; rate 0.0156 kg/ha) | Preemergence herbicidal rating SETVI ([5]; rate 0.2500 kg/ha) | herbicidal effect rating, CYPIR ([9]; 0.0313 kg/ha)
7.0: herbicidal effect rating, ECHORC ([8]; 0.1250 kg/ha) | herbicidal effect rating, ECHORC ([8]; 0.2500 kg/ha)
1.5: Herbicidal rating ORYSAT ([2]; rate 0.0313 kg/ha)
0.5: Herbicidal rating ORYSAT ([2]; rate 0.0156 kg/ha)
6.0: herbicidal effect rating, CYPIR ([9]; 0.1250 kg/ha) | herbicidal effect rating, CYPIR ([9]; 0.2500 kg/ha)
5.0: Herbicidal rating ZEAMX ([3]; rate 0.0625 kg/ha) | herbicidal effect rating, ECHORC ([8]; 0.0313 kg/ha) | herbicidal effect rating, ECHORC ([8]; 0.0625 kg/ha) | herbicidal effect rating, CYPIR ([9]; 0.0625 kg/ha)

Cn1c(C(F)(F)F)cc(=O)n(-c2cc(N=C3SCC(=O)N3Cc3ccc(Cl)c(Cl)c3)c(Cl)cc2F)c1=O [Compound 144, 3-{4-Chloro-5-{[3-(3,4-dichlorobenzyl)-4-oxo-2-thiazolidinylidene]amino}-2-fluorophenyl}-1-methyl-6-(trifluoromethyl)-2,4(1H,3H)-pyrimidinedione]
9.0: Preemergence herbicidal rating SETVI ([5]; rate 0.1250 kg/ha) | Preemergence herbicidal rating SETVI ([5]; rate 0.2500 kg/ha) | herbicidal effect rating, CYPIR ([9]; 0.1250 kg/ha) | herbicidal effect rating, CYPIR ([9]; 0.2500 kg/ha) | herbicidal effect rating, CYPSE ([10]; 0.1250 kg/ha) | herbicidal effect rating, CYPSE ([10]; 0.2500 kg/ha)
1.0: Preemergence herbicidal rating ECHCG ([4]; rate 0.2500 kg/ha) | herbicidal effect rating, ECHORC ([8]; 0.1250 kg/ha)
4.5: Herbicidal rating ZEAMX ([3]; rate 0.0625 kg/ha)
2.5: Herbicidal rating ORYSAT ([2]; rate 0.0156 kg/ha) | Herbicidal rating ORYSAT ([2]; rate 0.0313 kg/ha)
4.0: Herbicidal rating ZEAMX ([3]; rate 0.0156 kg/ha) | Herbicidal rating ZEAMX ([3]; rate 0.0313 kg/ha)
2.0: Preemergence herbicidal rating SETVI ([5]; rate 0.0625 kg/ha)
6.0: Herbicidal rating SETVI ([1]; rate 0.0625 kg/ha)
3.0: Herbicidal rating SETVI ([1]; rate 0.0156 kg/ha) | Herbicidal rating SETVI ([1]; rate 0.0313 kg/ha) | Herbicidal rating ORYSAT ([2]; rate 0.0625 kg/ha) | herbicidal effect rating, ECHORC ([8]; 0.2500 kg/ha) | herbicidal effect rating, CYPIR ([9]; 0.0313 kg/ha) | herbicidal effect rating, CYPIR ([9]; 0.0625 kg/ha)
0.0: Preemergence herbicidal rating ECHCG ([4]; rate 0.0156 kg/ha) | Preemergence herbicidal rating ECHCG ([4]; rate 0.0313 kg/ha) | Preemergence herbicidal rating ECHCG ([4]; rate 0.0625 kg/ha) | Preemergence herbicidal rating ECHCG ([4]; rate 0.1250 kg/ha) | Preemergence herbicidal rating SETVI ([5]; rate 0.0156 kg/ha) | Preemergence herbicidal rating SETVI ([5]; rate 0.0313 kg/ha) | Preemergence herbicidal rating TRZAWR ([6]; rate 0.0156 kg/ha) | Preemergence herbicidal rating TRZAWR ([6]; rate 0.0313 kg/ha) | Preemergence herbicidal rating TRZAWR ([6]; rate 0.0625 kg/ha) | Preemergence herbicidal rating TRZAWR ([6]; rate 0.1250 kg/ha) | Preemergence herbicidal rating TRZAWR ([6]; rate 0.2500 kg/ha) | Preemergence herbicidal rating ZEAMX ([7]; rate 0.0156 kg/ha) | Preemergence herbicidal rating ZEAMX ([7]; rate 0.0313 kg/ha) | Preemergence herbicidal rating ZEAMX ([7]; rate 0.0625 kg/ha) | Preemergence herbicidal rating ZEAMX ([7]; rate 0.1250 kg/ha) | Preemergence herbicidal rating ZEAMX ([7]; rate 0.2500 kg/ha) | herbicidal effect rating, ECHORC ([8]; 0.0313 kg/ha) | herbicidal effect rating, ECHORC ([8]; 0.0625 kg/ha)
7.0: herbicidal effect rating, CYPSE ([10]; 0.0313 kg/ha) | herbicidal effect rating, CYPSE ([10]; 0.0625 kg/ha)
